Reference: PubChem BioAssay AID248 (DTP/NCI, 2004)
Several values for one entry are separate records, joined by “and”; a condition that tells them apart may be missing. Identical values can stand only once. Inconclusive results and toxic doses are left out. No stated cut-off is given here; in the data, active means T/C of 150% or more; inactive means T/C below 125%.

System: L1210 leukemia ip in BDF1 mice, survival T/C
Assay: NCI In Vivo Anticancer Drug Screen. Data for tumor model L1210 Leukemia (intraperitoneal) in B6D2F1 (BDF1) mice
Details: endpoint: mean survival time, higher = longer survival
Summary of the method: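 Ratio derived from survival: compound-dosed mice over vehicle-dosed mice, all bearing a transplantable tumor.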

[1] = dose: 100.0 mg/kg/injection, schedule: Q01DX009 (ip), vehicle: saline with Tween-80
[2] = dose: 200.0 mg/kg/injection, schedule: Q01DX009 (ip), vehicle: saline with Tween-80
[3] = dose: 400.0 mg/kg/injection, schedule: Q01DX009 (ip), vehicle: saline with Tween-80
[4] = dose: 100.0 mg/kg/injection, schedule: Q01DX009 (ip), vehicle: saline
[5] = dose: 100.0 mg/kg/injection, schedule: Q04DX003 (ip), vehicle: saline
[6] = dose: 200.0 mg/kg/injection, schedule: Q04DX003 (ip), vehicle: saline
[7] = dose: 100.0 mg/kg/injection, schedule: Q04DX002 (ip), vehicle: Klucel (hydroxypropylcellulose) (HPC)
[8] = dose: 200.0 mg/kg/injection, schedule: Q04DX002 (ip), vehicle: Klucel (hydroxypropylcellulose) (HPC)
[9] = dose: 400.0 mg/kg/injection, schedule: Q04DX002 (ip), vehicle: Klucel (hydroxypropylcellulose) (HPC)
[10] = dose: 100.0 mg/kg/injection, schedule: Q01DX009 (ip), vehicle: Klucel (hydroxypropylcellulose) (HPC)
[11] = dose: 200.0 mg/kg/injection, schedule: Q01DX009 (ip), vehicle: Klucel (hydroxypropylcellulose) (HPC)
[12] = dose: 400.0 mg/kg/injection, schedule: Q01DX009 (ip), vehicle: Klucel (hydroxypropylcellulose) (HPC)
[13] = dose: 50.0 mg/kg/injection, schedule: Q01DX001 (ip), vehicle: saline
[14] = dose: 100.0 mg/kg/injection, schedule: Q01DX001 (ip), vehicle: saline
[15] = dose: 200.0 mg/kg/injection, schedule: Q01DX001 (ip), vehicle: saline
[16] = dose: 400.0 mg/kg/injection, schedule: Q01DX001 (ip), vehicle: saline
[17] = dose: 100.0 mg/kg/injection, schedule: Q01DX001 (ip), vehicle: Klucel (hydroxypropylcellulose) (HPC)
[18] = dose: 100.0 mg/kg/injection, schedule: Q04DX003 (ip), vehicle: Klucel (hydroxypropylcellulose) (HPC)
[19] = dose: 200.0 mg/kg/injection, schedule: Q01DX001 (ip), vehicle: Klucel (hydroxypropylcellulose) (HPC)
[20] = dose: 200.0 mg/kg/injection, schedule: Q04DX003 (ip), vehicle: Klucel (hydroxypropylcellulose) (HPC)
[21] = dose: 400.0 mg/kg/injection, schedule: Q01DX001 (ip), vehicle: Klucel (hydroxypropylcellulose) (HPC)
[22] = dose: 400.0 mg/kg/injection, schedule: Q04DX003 (ip), vehicle: Klucel (hydroxypropylcellulose) (HPC)

Measured: T/C

Cn1c(N)nc2nc[nH]c2c1=O
inactive: dose: 18.7 mg/kg/injection, schedule: Q01DX Z (ip), vehicle: methylcellulose (MC) 95 % of control | dose: 37.5 mg/kg/injection, schedule: Q01DX Z (ip), vehicle: methylcellulose (MC) 89 % of control

O=C(c1ccccc1)c1cc(Cl)ccc1NC(=O)C(Cl)(Cl)Cl
inactive: dose: 50.0 mg/kg/injection, schedule: Q01DX001 (ip), vehicle: saline with Tween-80 97 % of control | dose: 100.0 mg/kg/injection, schedule: Q01DX001 (ip), vehicle: saline with Tween-80 102 % of control | [1] 95 % of control and 89 % of control | dose: 100.0 mg/kg/injection, schedule: Q04DX002 (ip), vehicle: saline with Tween-80 96 % of control and 104 % of control | dose: 200.0 mg/kg/injection, schedule: Q01DX001 (ip), vehicle: saline with Tween-80 92 % of control | [2] 95 % of control and 89 % of control | dose: 200.0 mg/kg/injection, schedule: Q04DX002 (ip), vehicle: saline with Tween-80 93 % of control and 96 % of control | dose: 400.0 mg/kg/injection, schedule: Q01DX001 (ip), vehicle: saline with Tween-80 91 % of control | [3] 89 % of control and 91 % of control | dose: 400.0 mg/kg/injection, schedule: Q04DX002 (ip), vehicle: saline with Tween-80 101 % of control and 89 % of control

CCOC(=O)CNC(=O)NCCc1ccccc1
inactive: [1] 112 % of control | [2] 96 % of control | [3] 87 % of control

C/C=C\C#N
inactive: [4] 106 % of control | [5] 103 % of control | dose: 200.0 mg/kg/injection, schedule: Q01DX009 (ip), vehicle: saline 108 % of control | [6] 113 % of control

Cc1ccc(S(=O)(=O)NCl)cc1
inactive: [5] 99 % of control

CC(=O)Nc1cccc(C)c1C
inactive: [7] 107 % of control | [8] 100 % of control | [9] 103 % of control

c1ccc(-c2cc(-c3ccccc3)cc(-c3ccccc3)c2)cc1
inactive: dose: 1.56 mg/kg/injection, schedule: Q01DX009 (ip), vehicle: saline 98 % of control | dose: 3.12 mg/kg/injection, schedule: Q01DX009 (ip), vehicle: saline 95 % of control | dose: 6.25 mg/kg/injection, schedule: Q01DX009 (ip), vehicle: saline 93 % of control

Cc1cc(C)c(CN)cc1C
inactive: dose: 5.0 mg/kg/injection, schedule: Q04DX003 (ip), vehicle: saline with Tween-80 95 % of control | dose: 10.0 mg/kg/injection, schedule: Q04DX003 (ip), vehicle: saline with Tween-80 95 % of control | dose: 20.0 mg/kg/injection, schedule: Q04DX003 (ip), vehicle: saline with Tween-80 95 % of control

Cc1cccc(OC(=O)Nc2cccc3ccccc23)c1
inactive: [10] 93 % of control | [11] 87 % of control | [12] 96 % of control

CCOC(=O)C1(C(C)C)OC2(O)CCCCN2C1=O (stereo not drawn)
inactive: dose: 12.5 mg/kg/injection, schedule: Q04DX003 (ip), vehicle: alcohol 106 % of control | dose: 25.0 mg/kg/injection, schedule: Q04DX003 (ip), vehicle: alcohol 104 % of control | dose: 50.0 mg/kg/injection, schedule: Q04DX003 (ip), vehicle: alcohol 113 % of control | dose: 100.0 mg/kg/injection, schedule: Q04DX003 (ip), vehicle: alcohol 101 % of control

CC(=O)OC12CC3(C)CC(C)(C1)CC(OC(C)=O)(C3)C2
inactive: dose: 100.0 mg/kg/injection, schedule: Q04DX002 (ip), vehicle: saline 113 % of control | dose: 200.0 mg/kg/injection, schedule: Q04DX002 (ip), vehicle: saline 90 % of control | dose: 400.0 mg/kg/injection, schedule: Q04DX002 (ip), vehicle: saline 113 % of control

CNc1nc(Cl)ncc1C
inactive: dose: 0.2 mg/kg/injection, schedule: Q01DX Z (ip), vehicle: methylcellulose (MC) 90 % of control | dose: 0.5 mg/kg/injection, schedule: Q01DX Z (ip), vehicle: methylcellulose (MC) 89 % of control

c1ccc2c(c1)cnn1cnnc21
inactive: dose: 75.0 mg/kg/injection, schedule: Q01DX001 (ip), vehicle: carboxymethylcellulose (CMC) 115 % of control | dose: 150.0 mg/kg/injection, schedule: Q01DX001 (ip), vehicle: carboxymethylcellulose (CMC) 97 % of control

Cc1ccc2c(c1C)C(=O)C(=O)N2
inactive: [13] 110 % of control | [14] 104 % of control | [15] 110 % of control | [16] 104 % of control

CCCC[N+](C)(C)CC[N+](C)(C)CCCC
inactive: [14] 102 % of control | [15] 105 % of control | [16] 102 % of control

O=C1CCCCC1Nc1ccc([N+](=O)[O-])cc1 (stereo not drawn)
inactive: [14] 87 % of control | [15] 93 % of control | [16] 95 % of control

O=c1sc2c(s1)CCCC2
inactive: [7] 108 % of control | [8] 101 % of control | [9] 92 % of control

COc1ccc(-n2cnnn2)cc1
inactive: [14] 103 % of control | [15] 103 % of control | [16] 103 % of control

CCCCCC1CCC(OC(C)=O)CC1 (stereo not drawn)
inactive: [17] 99 % of control | [18] 101 % of control | [19] 96 % of control | [20] 95 % of control | [21] 96 % of control | [22] 93 % of control

Cc1c(C)c([N+](=O)[O-])c(I)c(C)c1[N+](=O)[O-]
inactive: dose: 75.0 mg/kg/injection, schedule: Q01DX009 (ip), vehicle: Klucel (hydroxypropylcellulose) (HPC) 98 % of control | dose: 75.0 mg/kg/injection, schedule: Q04DX003 (ip), vehicle: Klucel (hydroxypropylcellulose) (HPC) 102 % of control | dose: 150.0 mg/kg/injection, schedule: Q01DX009 (ip), vehicle: Klucel (hydroxypropylcellulose) (HPC) 98 % of control | dose: 150.0 mg/kg/injection, schedule: Q04DX003 (ip), vehicle: Klucel (hydroxypropylcellulose) (HPC) 102 % of control | dose: 300.0 mg/kg/injection, schedule: Q01DX009 (ip), vehicle: Klucel (hydroxypropylcellulose) (HPC) 97 % of control | dose: 300.0 mg/kg/injection, schedule: Q04DX003 (ip), vehicle: Klucel (hydroxypropylcellulose) (HPC) 98 % of control

CC1(C)CCC(N)CC1
inactive: dose: 75.0 mg/kg/injection, schedule: Q01DX001 (ip), vehicle: saline 93 % of control | dose: 150.0 mg/kg/injection, schedule: Q01DX001 (ip), vehicle: saline 95 % of control

O=C(COc1ccc(Cl)c(Cl)c1)N(Cc1ccccc1)Cc1cccnc1
inactive: [17] 99 % of control | [10] 98 % of control | [18] 100 % of control | [19] 96 % of control | [11] 116 % of control | [20] 96 % of control | [21] 96 % of control | [12] 100 % of control | [22] 98 % of control

O=C1CCC(=O)N1c1ccc([I+]c2ccc(N3C(=O)CCC3=O)cc2)cc1
inactive: [13] 103 % of control | [14] 103 % of control | [15] 105 % of control | [16] 103 % of control

O=P(O)(O)O
inactive: dose: 75.0 mg/kg/injection, schedule: Q04DX003 (ip), vehicle: saline 93 % of control | dose: 150.0 mg/kg/injection, schedule: Q04DX003 (ip), vehicle: saline 98 % of control | dose: 300.0 mg/kg/injection, schedule: Q04DX003 (ip), vehicle: saline 103 % of control

C1CC[N+]2=C(C1)OCCC2
inactive: dose: 30.0 mg/kg/injection, schedule: Q01DX009 (ip), vehicle: saline 93 % of control | dose: 44.0 mg/kg/injection, schedule: Q01DX009 (ip), vehicle: saline 100 % of control | dose: 60.0 mg/kg/injection, schedule: Q01DX009 (ip), vehicle: saline 106 % of control | dose: 66.0 mg/kg/injection, schedule: Q01DX009 (ip), vehicle: saline 103 % of control | [4] 102 % of control and 103 % of control | [5] 101 % of control | dose: 150.0 mg/kg/injection, schedule: Q01DX009 (ip), vehicle: saline 100 % of control and 104 % of control | [6] 101 % of control | dose: 400.0 mg/kg/injection, schedule: Q04DX003 (ip), vehicle: saline 91 % of control
